Results: patent publication US20080076751A1, “Azetidinone Derivatives and Methods of Use Thereof” (priority 2006, published 2008)

biological target: T1, human CaV3.2 (Homo sapiens, UniProt O95180); experiment: IonWorks screen for hCaV3.2 (T-type calcium current, voltage clamp); type: cell-based; settings: IonWorks HT, HEK cells, 10 min incubation, pulse 10, 8-point curve; read-out: IW hCav3 2 IC50
T1 construct: expressed in transfected cells
From the text: Functional evaluation of voltage-gated ion channels can be used to determine potency and/or single concentration efficacy of the Azetidinone Derivatives of the present invention. Two different methodologies can be used to measure ion currents: the lonWorks HT (Molecular Devices, Sunnyvale, Calif.) a moderate throughput voltage clamp screening platform that utilizes 96-well compound plates and conventional whole cell patch clamp for lower throughput, higher fidelity determinations.
HEK cells are transiently transfected and then selected for stable heterologous expression of different channel proteins of interest. Calcium channel cell lines expressed a resting potassium current, human Kir2.1, and the pore forming α-subunit of voltage-gated calcium channels. In the case of CaV2.1 cells the auxiliary subunit, β2a, is also expressed. Calcium channel lines that are used to generate the data will express either human CaV3.2, rat CaV3.2 or human CaV2.1. The human heart sodium channel, hNaV1.5, are stably expressed in CHO cells.
Cell lines can be grown at 37° C. in humidified incubators, equilibrated with 95% air/5% CO2. CHO cells can be grown in Ham's F-12 medium. HEK cells can be grown in DMEM. All media are supplemented with 10% heat-inactivated fetal bovine serum, penicillin, streptomycin and appropriate selection antibiotics (zeocin, geneticin and/or hygromycin). Cells are passaged when 80% confluent or less.
IonWorks Screen for hCaV3.2
The extracellular buffer for experiments using this instrument contained the following (mM) (NaCl 125, HEPES 10, KCl 5.4, CaCl2 1.8, MgCl2 1.8, 0.2 BaCl2 pH 7.35). The lonWorks uses amphotericin to gain electrical access to the cell interior. The internal solution contained (mM concentrations): 130 K-gluconate, 20 KCl, 5 HEPES-KOH (pH 7.25), 2 CaCl2, 1 MgCl2. Amphotericin added at 5 mg in 65 mL when present (in 650 μL DMSO). All internal and external solutions for this experiment contain 1% DMSO. Cells were acutely trypsinized from a T-75 flask and resuspended in extracellular buffer at a density of 2×10^5 cells/mL.
Experiments were performed at room temperature. Transmembrane potential was held at −100 mV for 5 seconds prior to running the voltage protocol. During this time leak currents were measured during a step to −110 mV (200 milliseconds). T-type calcium currents were activated with a 250 millisecond step to −20 mV. This depolarization step was repeated for a total of 10 pulses with an interpulse interval of 1 second. Data were excluded if the following acceptance criteria were not met: total resistance for the pre-compound scan>65 MΩ, pre-compound current>250 pA, post compound total resistance>50 MΩ.
T-type currents were measured as the peak inward current minus the current at the end of the 250 msec step to −20 mV. After the recoding configuration was established there was a pre-compound measurement of current amplitude. Compound was added as a 3× solution containing 1% DMSO. After incubation with compound for 10 minutes currents were measured again. The current amplitude after compound addition was divided by the pre-compound current for pulse 10 to determine the fraction of current remaining after compound addition. For each compound, 8-point concentration-effect relationships were measured with ½ log serial dilutions.

T1 sequence (O95180 whole entry): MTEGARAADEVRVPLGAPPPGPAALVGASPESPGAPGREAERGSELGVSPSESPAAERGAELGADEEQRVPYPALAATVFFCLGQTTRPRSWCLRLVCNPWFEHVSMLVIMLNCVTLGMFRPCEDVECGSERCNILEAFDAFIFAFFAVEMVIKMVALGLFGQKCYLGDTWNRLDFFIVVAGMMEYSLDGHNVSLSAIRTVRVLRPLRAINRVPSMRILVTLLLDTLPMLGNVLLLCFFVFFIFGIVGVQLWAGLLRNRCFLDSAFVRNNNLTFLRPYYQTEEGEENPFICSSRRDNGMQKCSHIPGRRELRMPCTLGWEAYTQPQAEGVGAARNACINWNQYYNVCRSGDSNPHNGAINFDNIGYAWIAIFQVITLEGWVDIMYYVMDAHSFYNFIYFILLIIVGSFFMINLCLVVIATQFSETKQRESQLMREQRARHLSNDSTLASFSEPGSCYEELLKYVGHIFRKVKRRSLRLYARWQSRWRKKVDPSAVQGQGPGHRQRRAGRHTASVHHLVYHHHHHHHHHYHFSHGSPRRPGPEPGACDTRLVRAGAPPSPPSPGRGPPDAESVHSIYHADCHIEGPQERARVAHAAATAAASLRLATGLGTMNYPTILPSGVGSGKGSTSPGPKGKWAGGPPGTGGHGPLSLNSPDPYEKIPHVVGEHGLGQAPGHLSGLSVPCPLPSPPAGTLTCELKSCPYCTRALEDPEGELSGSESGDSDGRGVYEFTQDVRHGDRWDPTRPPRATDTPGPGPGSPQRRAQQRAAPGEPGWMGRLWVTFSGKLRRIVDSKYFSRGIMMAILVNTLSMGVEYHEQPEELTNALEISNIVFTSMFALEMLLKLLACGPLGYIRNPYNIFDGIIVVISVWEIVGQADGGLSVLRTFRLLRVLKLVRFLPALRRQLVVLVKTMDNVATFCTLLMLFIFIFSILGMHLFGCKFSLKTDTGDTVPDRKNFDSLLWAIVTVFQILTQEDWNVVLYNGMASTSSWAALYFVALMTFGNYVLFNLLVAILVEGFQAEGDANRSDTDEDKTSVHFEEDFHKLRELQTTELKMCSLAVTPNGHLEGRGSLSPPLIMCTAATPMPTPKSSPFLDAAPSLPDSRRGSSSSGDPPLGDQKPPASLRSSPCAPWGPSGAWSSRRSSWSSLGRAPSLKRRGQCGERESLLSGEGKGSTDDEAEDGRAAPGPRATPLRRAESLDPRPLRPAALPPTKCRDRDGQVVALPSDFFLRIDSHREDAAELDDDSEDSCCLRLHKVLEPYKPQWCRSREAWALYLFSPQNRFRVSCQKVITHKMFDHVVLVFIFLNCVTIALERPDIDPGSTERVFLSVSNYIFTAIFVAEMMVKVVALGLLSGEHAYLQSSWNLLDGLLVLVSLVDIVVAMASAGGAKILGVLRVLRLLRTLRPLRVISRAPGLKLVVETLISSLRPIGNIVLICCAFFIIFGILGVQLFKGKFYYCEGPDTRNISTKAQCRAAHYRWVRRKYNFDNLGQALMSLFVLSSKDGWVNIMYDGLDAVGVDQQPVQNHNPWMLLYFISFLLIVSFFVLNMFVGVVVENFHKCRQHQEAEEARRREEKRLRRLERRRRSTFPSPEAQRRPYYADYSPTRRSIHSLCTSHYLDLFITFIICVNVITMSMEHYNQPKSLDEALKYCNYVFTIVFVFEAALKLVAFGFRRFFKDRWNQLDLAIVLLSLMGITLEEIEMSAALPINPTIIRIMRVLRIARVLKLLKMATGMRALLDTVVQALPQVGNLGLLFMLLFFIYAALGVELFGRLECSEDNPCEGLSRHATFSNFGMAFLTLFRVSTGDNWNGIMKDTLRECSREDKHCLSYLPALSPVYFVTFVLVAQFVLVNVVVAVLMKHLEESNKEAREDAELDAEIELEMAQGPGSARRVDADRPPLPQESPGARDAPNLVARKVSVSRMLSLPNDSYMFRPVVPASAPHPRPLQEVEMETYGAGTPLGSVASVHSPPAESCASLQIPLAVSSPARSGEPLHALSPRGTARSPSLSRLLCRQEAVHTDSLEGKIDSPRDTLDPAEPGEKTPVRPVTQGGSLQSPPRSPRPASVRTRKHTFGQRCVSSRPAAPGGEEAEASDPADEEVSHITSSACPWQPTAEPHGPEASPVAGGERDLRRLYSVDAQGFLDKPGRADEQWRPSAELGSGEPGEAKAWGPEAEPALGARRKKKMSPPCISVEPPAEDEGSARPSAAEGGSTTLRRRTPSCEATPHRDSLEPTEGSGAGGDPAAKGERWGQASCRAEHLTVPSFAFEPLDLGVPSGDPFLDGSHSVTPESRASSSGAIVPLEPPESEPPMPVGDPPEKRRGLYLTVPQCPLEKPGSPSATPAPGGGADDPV

| SMILES | IC50 |
| --- | --- |
| CCC(C)[C@H](NC(=O)N1CCC2(CC1)C(=O)N(c1ccc(F)c(Cl)c1)C2c1ccc(-c2cccnc2)cn1)C(=O)OC (some centres unmarked) | 577 nM |
| CCC(C)[C@H](NC(=O)N1CCC2(CC1)C(=O)N(c1ccc(F)c(Cl)c1)C2c1ccc(-c2ccccc2)cn1)C(=O)OC (some centres unmarked) | 84 nM |
| C[C@H](NC(=O)N1CCC2(CC1)C(=O)N(c1ccc(F)c(Cl)c1)C2c1ccc(Br)cn1)c1ccc(F)cc1 (some centres unmarked) | 136 nM |
| O=C(Nc1cc(F)cc(F)c1)N1CCC2(CC1)C(=O)N(c1ccc(F)c(Cl)c1)C2c1ccc(Br)cn1 (centres unmarked) | 52.5 nM |
| CCC(C)[C@H](NC(=O)N1CCC2(CC1)C(=O)N(c1ccc(F)c(Cl)c1)C2c1ccc(C#N)cn1)C(=O)OC (some centres unmarked) | 260 nM |
| N#Cc1cncc(N2C(=O)C3(CCN(C(=O)Nc4cccc(C(F)(F)F)c4)CC3)C2c2ccccn2)c1 (centres unmarked) | 1260 nM |
| N#Cc1cccc(NC(=O)N2CCC3(CC2)C(=O)N(c2ccc(F)c(Cl)c2)C3c2ccccn2)c1 (centres unmarked) | 358 nM |
| N#Cc1cncc(N2C(=O)C3(CCN(C(=O)Nc4cc(F)cc(F)c4)CC3)C2c2ccccn2)c1 (centres unmarked) | 2380 nM |
| C[C@H](NC(=O)N1CCC2(CC1)C(=O)N(c1cncnc1)C2c1ccccn1)c1ccc(F)cc1 (some centres unmarked) | 2010 nM |
| O=C(Nc1cc(F)cc(F)c1)N1CCC2(CC1)C(=O)N(c1ccccn1)C2c1ccccn1 (centres unmarked) | 1160 nM |
| O=C(Nc1cccnc1)N1CCC2(CC1)C(=O)N(c1cccc(Cl)c1)C2c1ccccn1 (centres unmarked) | 1120 nM |
| CC[C@H](C)[C@H](NC(=O)N1CCC2(CC1)C(=O)N(c1cccc(F)c1)C2c1ccc(Cl)cc1)C(=O)OC(C)C (some centres unmarked) | 45 nM |
| C[C@@H](NC(=O)N1CCC2(CC1)C(=O)N(c1cccc(F)c1)C2c1ccc(Cl)cc1)c1ccc(F)cc1 (some centres unmarked) | 675 nM |
| C[C@H](NC(=O)N1CCC2(CC1)C(=O)N(c1cccc(F)c1)C2c1ccc(Cl)cc1)c1ccccc1 (some centres unmarked) | 139 nM |
| C[C@@H](NC(=O)N1CCC2(CC1)C(=O)N(c1cccc(F)c1)C2c1ccc(Cl)cc1)c1ccccc1 (some centres unmarked) | 351 nM |
| CS(=O)(=O)c1ccccc1N1C(=O)C2(CCN(C(=O)Nc3cc(F)cc(F)c3)CC2)C1c1ccc(Cl)cc1 (centres unmarked) | 94 nM |
| O=C(NCc1ccccc1F)N1CCC2(CC1)C(=O)N(c1cccc(F)c1)C2c1ccc(Cl)cc1 (centres unmarked) | 269 nM |
| COC(=O)[C@H](C)NC(=O)N1CCC2(CC1)C(=O)N(c1cccc(F)c1)C2c1ccc(Cl)cc1 (some centres unmarked) | 827 nM |
| CC(NC(=O)N1CCC2(CC1)C(=O)N(c1cccc(F)c1)C2c1ccc(Cl)cc1)c1ccncc1 (centres unmarked) | 694 nM |
| C[C@H](NC(=O)N1CCC2(CC1)C(=O)N(c1cncnc1)C2c1cccnc1)c1ccc(F)cc1 (some centres unmarked) | 2590 nM |
| CC[C@H](C)[C@H](NC(=O)N1CCC2(CC1)C(=O)N(c1cccc(F)c1)C2c1ccc(Cl)cc1)C(=O)OC (single isomer, unassigned) | 57 nM |
| O=C(Nc1cc(F)cc(F)c1)N1CCC2(CC1)C(=O)N(c1cccc(F)c1)C2c1ccc(Cl)cc1 (single isomer, unassigned) | 390 nM |
| O=C(Nc1cccc(C(F)(F)F)c1)N1CCC2(CC1)C(=O)N(c1ccc(F)c(Cl)c1)C2c1ccccn1 (centres unmarked) [drawing 560] | 4.33 nM |
| O=C(Nc1cccc(C(F)(F)F)c1)N1CCC2(CC1)C(=O)N(c1ccc(F)c(Cl)c1)C2c1ccccn1 (centres unmarked) [drawing 561] | 83 nM |
| O=C(Nc1cccc(C(F)(F)F)c1)N1CCC2(CC1)C(=O)N(c1cncc(Cl)c1)C2c1ccccn1 (centres unmarked) [drawing 562] | 155 nM |
| O=C(Nc1cccc(C(F)(F)F)c1)N1CCC2(CC1)C(=O)N(c1cccc(Cl)c1)C2c1ccccn1 (centres unmarked) [drawing 563] | 95.5 nM |
| N#Cc1cccc(N2C(=O)C3(CCN(C(=O)Nc4cccc(C(F)(F)F)c4)CC3)C2c2ccccn2)c1 (centres unmarked) [drawing 567] | 371 nM |
| N#Cc1cccc(N2C(=O)C3(CCN(C(=O)Nc4cccc(C(F)(F)F)c4)CC3)C2c2ccccn2)c1 (centres unmarked) [drawing 568] | 51 nM |

Continued by falling IC50, values first:

| IC50 | SMILES |
| --- | --- |
| 3240 nM | C[C@H](NC(=O)N1CCC2(CC1)C(=O)N(c1cncc(Cl)c1)C2c1ccccn1)c1ccc(F)cc1 (some centres unmarked) |
| 2610 nM | CC[C@H](C)[C@H](NC(=O)N1CCC2(CC1)C(=O)N(c1cncnc1)C2c1ccccn1)C(=O)OC (some centres unmarked) |
| 2460 nM | CC(NC(=O)N1CCC2(CC1)C(=O)N(c1cccc(F)c1)C2c1ccc(Cl)cc1)c1cccnc1 (centres unmarked) |
| 2330 nM | C[C@H](NC(=O)N1CCC2(CC1)C(=O)N(c1cncnc1)C2c1ccc(Cl)cc1)c1ccc(F)cc1 (some centres unmarked) |
| 2170 nM | CC(NC(=O)N1CCC2(CC1)C(=O)N(c1cccc(F)c1)C2c1ccc(Cl)cc1)c1ccccn1 (centres unmarked) |
| 2100 nM | O=C(Nc1cc(F)cc(F)c1)N1CCC2(CC1)C(=O)N(c1cncc(F)c1)C2c1ccccn1 (centres unmarked) |
| 1830 nM | CC(C)CN1C(=O)C2(CCN(C(=O)N[C@@H](C)c3ccc(F)cc3)CC2)C1c1ccc(Cl)cc1 (some centres unmarked) |
| 1480 nM | N#Cc1cccc(NC(=O)N2CCC3(CC2)C(=O)N(c2cncc(Cl)c2)C3c2ccccn2)c1 (centres unmarked) |
| 1330 nM | O=C(NCc1ccccn1)N1CCC2(CC1)C(=O)N(c1cccc(F)c1)C2c1ccc(Cl)cc1 (centres unmarked) |
| 965 nM | CC[C@H](C)[C@H](NC(=O)N1CCC2(CC1)C(=O)N(c1cccc(F)c1)C2c1ccc(Cl)cc1)C(N)=O (some centres unmarked) |
| 634 nM | CCC(C)[C@H](NC(=O)N1CCC2(CC1)C(=O)N(c1ccc(F)c(Cl)c1)C2c1ccc(-c2ccncc2)cn1)C(=O)OC (some centres unmarked) |
| 611 nM | C[C@H](NC(=O)N1CCC2(CC1)C(=O)N(c1ccccc1S(C)(=O)=O)C2c1ccc(Cl)cc1)c1ccc(F)cc1 (some centres unmarked) |
| 538 nM | O=C(NCc1cccc(F)c1)N1CCC2(CC1)C(=O)N(c1cccc(F)c1)C2c1ccc(Cl)cc1 (centres unmarked) |
| 518 nM | O=C(Nc1cc(F)cc(F)c1)N1CCC2(CC1)C(=O)N(c1cncc(Cl)c1)C2c1ccccn1 (centres unmarked) |
| 371 nM | O=C(Nc1cccc(F)c1)N1CCC2(CC1)C(=O)N(c1ccc(F)c(Cl)c1)C2c1ccccn1 (centres unmarked) |
| 277 nM | CC[C@H](C)[C@H](NC(=O)N1CCC2(CC1)C(=O)N(C(C)C)C2c1ccc(Br)cc1)C(=O)OC (some centres unmarked) |
| 251 nM | COC(=O)[C@H](COC(C)(C)C)NC(=O)N1CCC2(CC1)C(=O)N(c1cccc(F)c1)C2c1ccc(Cl)cc1 (some centres unmarked) |
| 224 nM | CC[C@H](NC(=O)N1CCC2(CC1)C(=O)N(c1cccc(F)c1)C2c1ccc(Cl)cc1)c1ccccc1 (some centres unmarked) |
| 185 nM | O=C(Nc1cccc(Cl)c1)N1CCC2(CC1)C(=O)N(c1ccc(F)c(Cl)c1)C2c1ccccn1 (centres unmarked) |
| 183 nM | N#Cc1cccc(NC(=O)N2CCC3(CC2)C(=O)N(c2cccc(F)c2)C3c2ccc(Cl)cc2)c1 (single isomer, unassigned) |
| 182 nM | CC[C@H](C)[C@H](NC(=O)N1CCC2(CC1)C(=O)N(c1cccc(F)c1)C2c1ccc(Cl)cc1)C(=O)NC (some centres unmarked) |
| 157 nM | O=C(Nc1cc(F)cc(F)c1)N1CCC2(CC1)C(=O)N(c1cccc(Cl)c1)C2c1cccc[n+]1O (centres unmarked) |
| 109 nM | CC[C@H](C)[C@H](NC(=O)N1CCC2(CC1)C(=O)N(c1ccccc1S(C)(=O)=O)C2c1ccc(Cl)cc1)C(=O)OC (some centres unmarked) |
| 100 nM | CCC(C)[C@H](NC(=O)N1CCC2(CC1)C(=O)N(c1ccc(F)c(Cl)c1)C2c1ccc(Br)cn1)C(=O)OC (some centres unmarked) |
| 82 nM | C[C@H](NC(=O)N1CCC2(CC1)C(=O)N(c1cccc(F)c1)C2c1ccc(Cl)cc1)c1ccc(F)cc1 (some centres unmarked) |
| 35 nM | CC[C@H](C)[C@@H](C#N)NC(=O)N1CCC2(CC1)C(=O)N(c1cccc(F)c1)C2c1ccc(Cl)cc1 (some centres unmarked) |
| 19.5 nM | O=C(Nc1cccc(C(F)(F)F)c1)N1CCC2(CC1)C(=O)N(c1cccc(Cl)c1)C2c1ccccn1 (centres unmarked) [drawing 564] |
| 17.5 nM | N#Cc1cc(F)cc(NC(=O)N2CCC3(CC2)C(=O)N(c2ccc(F)c(Cl)c2)C3c2ccccn2)c1 (centres unmarked) [drawing 565] |
